Assay: cn = amount concentration of the nth substance listed, in mol/dm3
Details: 298.15 K; for surface tension liquid-gas: Wilhelmy plate method; for kinematic viscosity / mass density / speed of sound: 101 kPa, Liquid; for kinematic viscosity: Capillary tube (Ostwald / Ubbelohde) method

CCCCCCCCCC[N+](C)(C)C.[Br-] [N,N,N-trimethyl-1-decanaminium bromide] + O
Details	kinematic viscosity [m2/s]	mass density [kg/m3]	speed of sound [m/s]	surface tension liquid-gas [mN/m]
c1 = 0.001	8.975e-07	997.11	1497.3	65.4
c1 = 0.005	8.99e-07	997.25	1497.8	60.1
c1 = 0.01	9.048e-07	997.37	1498.7	57.6
c1 = 0.02	9.14e-07	997.58	1500.8	49.7
c1 = 0.03	9.224e-07	997.85	1502.6	43.4
c1 = 0.04	9.35e-07	998.06	1504.3	38
c1 = 0.05	9.449e-07	998.33	1506.3	36.9
c1 = 0.06	9.56e-07	998.52	1508	36.1
c1 = 0.07	9.642e-07	998.79	1509.2	35.5
c1 = 0.08	9.78e-07	999	1509.7	35.2
c1 = 0.1	1.002e-06	999.37	1510.1	35.2
c1 = 0.12	1.024e-06	999.77	1510.6	35
c1 = 0.15	1.062e-06	1000.4	1511.1	35.2
c1 = 0.2	1.117e-06	1001.22	1511.7	35
c1 = 0.25	1.181e-06	1002.09	1512.4	35.1

CCCCCC[N+](C)(C)C.[Br-] [hexyltrimethylammonium bromide] + O
Details	kinematic viscosity [m2/s]	mass density [kg/m3]	speed of sound [m/s]	surface tension liquid-gas [mN/m]
c1 = 0.1	9.149e-07	1000.32	1510.6	51.6
c1 = 0.2	9.406e-07	1003.85	1524.9	44.3
c1 = 0.3	9.727e-07	1006.97	1537.3	41.1
c1 = 0.4	1.011e-06	1010.42	1550.5	38.3
c1 = 0.45	1.033e-06	1012.06	1557.7	36.8
c1 = 0.5	1.056e-06	1013.74	1562.9	35.8
c1 = 0.6	1.108e-06	1017.19	1575.3	34
c1 = 0.7	1.166e-06	1021.02	1588.6	32.5
c1 = 0.8	1.23e-06	1024.21	1599.1	31.2
c1 = 0.9	1.301e-06	1027.68	1610	30.5
c1 = 1	1.379e-06	1031.33	1620.6	29.9
c1 = 1.1	1.463e-06	1034.12	1628.1	29.5
c1 = 1.3	1.65e-06	1041.07	1644.8	29.3
c1 = 1.5	1.863e-06	1047.62	1652.1	29.1
c1 = 1.7	2.101e-06	1054.38	1660	29.1
c1 = 2	2.508e-06	1064.23	1670.3	28.9

CCCCCCCC[N+](C)(C)C.[Br-] [octyl trimethyl ammonium bromide] + O
Details	kinematic viscosity [m2/s]	mass density [kg/m3]	speed of sound [m/s]	surface tension liquid-gas [mN/m]
c1 = 0.02	8.99e-07	997.62	1500.1	69.4
c1 = 0.04	9.033e-07	998.2	1503.1	63.1
c1 = 0.06	9.083e-07	998.73	1506.3	59.5
c1 = 0.08	9.14e-07	999.23	1510	54.6
c1 = 0.1	9.2e-07	999.68	1513.1	51.1
c1 = 0.12	9.276e-07	1000.25	1516.4	48.9
c1 = 0.14	9.355e-07	1000.79	1520.3	46.5
c1 = 0.16	9.441e-07	1001.62	1522.7	44
c1 = 0.18	9.534e-07	1001.9	1525.8	41.7
c1 = 0.2	9.636e-07	1002.54	1529.6	39.8
c1 = 0.3	1.025e-06	1005	1540	36.4
c1 = 0.4	1.103e-06	1008.09	1546.5	35.8
c1 = 0.5	1.2e-06	1010.5	1549.2	35.5
c1 = 0.6	1.315e-06	1013.19	1552.2	35.4
c1 = 0.8	1.598e-06	1018.07	1557.4	35.2
c1 = 1	1.953e-06	1022.98	1562.7	35.1

O [water] + CCCCCCCCCC[N+](C)(C)C.[Br-]
c2 = 0
Details	kinematic viscosity [m2/s]	surface tension liquid-gas [mN/m]
–	8.956e-07	72.5

O [water] + CCCCCCCC[N+](C)(C)C.[Br-]
c2 = 0
Details	kinematic viscosity [m2/s]	surface tension liquid-gas [mN/m]
–	8.957e-07	72.5

O [water] + CCCCCC[N+](C)(C)C.[Br-]
c2 = 0
Details	kinematic viscosity [m2/s]	surface tension liquid-gas [mN/m]
–	8.957e-07	72.5

From the NIST ThermoML archive (doi:10.1021/je060486k)
